The SangsterLogP compilation

How the values were obtained:
[1] = method code SF-AS, from Fulcrand, P.; Berge, G.; Noel, A. (1978). Hydrazides as monoamine oxidase inhibitors. Hansch and Free Wilson correlations. Eur J Med Chem, 13(2)177-182.
[2] = method code SF, from Fulcrand, P.; Berge, G.; Noel, A. (1978). Hydrazides as monoamine oxidase inhibitors. Hansch and Free Wilson correlations. Eur J Med Chem, 13(2)177-182.

| SMILES | logP [1] | logP [2] |
| --- | --- | --- |
| Cc1ccccc1OCC(=O)NNC(C)C | 1.83 |  |
| CC(C)NNC(=O)C(C)Oc1ccc(Cl)cc1 (centres undefined) | 2.14 |  |
| Cc1ccc(OCC(=O)NNC(C)C)cc1 | 1.81 |  |
| COc1ccc(OCC(=O)NNC(C)C)cc1 | 1.21 |  |
| CC(C)NNC(=O)C(C)(C)Oc1ccc(Cl)cc1 | 2.56 |  |
| CC(C)NNC(=O)C(C)Oc1ccccc1Cl (centres undefined) | 2 |  |
| Cc1cccc(OC(C)C(=O)NNC(C)C)c1 (centres undefined) | 1.88 |  |
| CCNNC(=O)COc1ccc(Cl)cc1 | 1.73 |  |
| CCNNC(=O)COc1ccccc1 | 1 |  |
| COc1ccc(OCC(=O)NNC(C)c2ccccc2)cc1 (centres undefined) | 2.39 |  |
| O=C(COc1ccc(Cl)cc1)NNCc1ccccc1 | 2.92 |  |
| CC(NNC(=O)COc1ccccc1)c1ccccc1 (centres undefined) | 2.46 |  |
| Cc1cccc(OCC(=O)NNC(C)C)c1 | 1.77 |  |
| CC(C)NNC(=O)C(C)Oc1cccc(Cl)c1 (centres undefined) | 2.18 |  |
| Cc1ccc(OCC(=O)NNC(C)c2ccccc2)cc1 (centres undefined) | 2.87 |  |
| CC(C)NNC(=O)COc1ccccc1 | 1.24 |  |
| O=C(COc1ccccc1)NNCc1ccccc1 | 2.16 |  |
| CC(C)NNC(=O)C(C)(C)Oc1ccccc1 | 1.88 |  |
| COc1cccc(OCC(=O)NNC(C)C)c1 | 1.33 |  |
| CC(C)NNC(=O)COc1ccc(Cl)cc1 |  | 2.01 |
| COc1ccccc1OCC(=O)NNC(C)C | 1.11 |  |
| CC(C)NNC(=O)COc1cccc(Cl)c1 | 1.91 |  |
| CC(C)NNC(=O)COc1ccccc1Cl | 1.82 |  |
| CC(C)NNC(=O)C(C)Oc1ccccc1 (centres undefined) | 1.39 |  |
